Measurements reported in patent US20260158017A1, “KIF18A INHIBITOR” (WIGEN BIOMEDICINE TECHNOLOGY (SHANGHAI) CO., LTD., priority 2021, published 2026).

These molecules were tested against T1, Recombinant human KIF18A (1-467His-tagged) protein (Homo sapiens, UniProt Q8NI77) (assay: KIF18A enzyme assay (microtubule-stimulated ATPase activity, ADP-Glo)). Settings: 30 nM KIF18A, 75 μM ATP, 30 μg/mL pig microtubules; read-out: Inhibitory activity against KIF18A IC50.
T1 construct: Recombinant human KIF18A (1-467His-tagged) protein; His; made in house
Type: biochemical
Summary of the method: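 Buffer 15 mM Tris pH 7.5, 10 mM MgCl2, 0.01% Pluronic F-68, 1 μM paclitaxel, 30 μg/mL pig microtubules; reactions at room temperature. IC50 from inhibition relative to DMSO.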

T1 sequence (Q8NI77 1-467): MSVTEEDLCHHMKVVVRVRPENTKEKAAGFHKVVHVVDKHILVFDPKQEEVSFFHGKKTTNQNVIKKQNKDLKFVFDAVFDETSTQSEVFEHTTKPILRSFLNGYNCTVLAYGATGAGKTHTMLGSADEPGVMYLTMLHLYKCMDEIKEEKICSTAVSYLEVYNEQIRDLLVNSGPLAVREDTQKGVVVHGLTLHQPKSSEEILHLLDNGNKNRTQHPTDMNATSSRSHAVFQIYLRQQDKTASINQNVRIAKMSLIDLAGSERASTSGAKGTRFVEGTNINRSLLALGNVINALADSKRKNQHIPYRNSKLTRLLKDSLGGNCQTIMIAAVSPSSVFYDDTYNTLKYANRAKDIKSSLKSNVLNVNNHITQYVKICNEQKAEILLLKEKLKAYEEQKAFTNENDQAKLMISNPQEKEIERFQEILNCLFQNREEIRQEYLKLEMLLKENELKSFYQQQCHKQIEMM
T1 sequence (P02550 whole entry partner): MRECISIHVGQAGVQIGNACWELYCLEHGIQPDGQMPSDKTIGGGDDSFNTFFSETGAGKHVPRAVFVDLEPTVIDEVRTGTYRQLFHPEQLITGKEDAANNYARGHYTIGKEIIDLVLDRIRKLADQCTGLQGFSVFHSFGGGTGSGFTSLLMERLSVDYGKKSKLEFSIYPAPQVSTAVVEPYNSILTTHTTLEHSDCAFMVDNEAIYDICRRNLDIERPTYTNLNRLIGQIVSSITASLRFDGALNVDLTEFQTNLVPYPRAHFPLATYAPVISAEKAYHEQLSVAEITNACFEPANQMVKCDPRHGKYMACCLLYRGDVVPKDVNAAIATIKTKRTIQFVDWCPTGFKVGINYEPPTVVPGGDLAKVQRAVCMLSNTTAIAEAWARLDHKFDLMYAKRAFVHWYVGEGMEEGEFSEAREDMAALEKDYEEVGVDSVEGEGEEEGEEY
T1 sequence (P02554 whole entry partner): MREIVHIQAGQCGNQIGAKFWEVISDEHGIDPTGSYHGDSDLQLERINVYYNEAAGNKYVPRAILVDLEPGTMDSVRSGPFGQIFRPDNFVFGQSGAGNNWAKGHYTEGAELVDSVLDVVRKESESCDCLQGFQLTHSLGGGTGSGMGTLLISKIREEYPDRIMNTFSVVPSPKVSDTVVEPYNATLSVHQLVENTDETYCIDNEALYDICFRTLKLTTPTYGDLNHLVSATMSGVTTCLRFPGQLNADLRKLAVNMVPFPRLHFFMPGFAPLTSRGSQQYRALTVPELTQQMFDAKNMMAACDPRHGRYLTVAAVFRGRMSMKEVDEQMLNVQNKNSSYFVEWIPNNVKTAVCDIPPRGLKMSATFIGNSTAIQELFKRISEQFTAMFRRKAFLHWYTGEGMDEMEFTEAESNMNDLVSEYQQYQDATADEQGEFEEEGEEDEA

Row | SMILES | IC50 [nM]
1 | O=C(Nc1ccc(NS(=O)(=O)CCO)cc1N1CCC2(CC1)CC2)c1ccc(OCF)c(N2CCC(F)CC2)c1 [Compound 521] | ≤ 100
2 | O=C(Nc1ccc(NS(=O)(=O)CCO)cc1N1CCC2(CC1)CC2)c1ccc(OCF)c(N2CC3CC3C2)c1 (stereo not shown) [Compound 522] | ≤ 100
3 | CC(C)(CO)Nc1cc(C(=O)Nc2ccc(NS(=O)(=O)CCO)cc2N2CCC3(CC2)CC3)ccc1OCF [Compound 523] | ≤ 100
4 | O=C(Nc1ccc(NS(=O)(=O)CCO)cc1N1CCC2(CC1)CC2)c1ccc(OCF)c(N2CCOCC2)c1 [Compound 524] | ≤ 100
5 | C[C@@H](CO)S(=O)(=O)Nc1ccc(NC(=O)c2ccc(OCF)c(N3CCC(F)(F)CC3)c2)c(N2CCC3(CC2)CC3)c1 [Compound 525] | ≤ 100
6 | C[C@H](CO)S(=O)(=O)Nc1ccc(NC(=O)c2ccc(OCF)c(N3CCC(F)(F)CC3)c2)c(N2CCC3(CC2)CC3)c1 [Compound 526] | ≤ 100
7 | C[C@@H]1CN(c2cc(C(=O)Nc3ccc(NS(=O)(=O)[C@@H](C)CO)cc3N3CCC4(CC3)CC4)ccc2OCF)CCO1 [Compound 527] | ≤ 100
8 | C[C@@H]1CN(c2cc(C(=O)Nc3ccc(NS(=O)(=O)[C@H](C)CO)cc3N3CCC4(CC3)CC4)ccc2OCF)CCO1 [Compound 528] | ≤ 100
9 | O=C(Nc1ccc(S(=O)(=O)NCCO)cc1N1CCC2(CC1)CC2)c1ccc(OCF)c(N2CCC(F)(F)CC2)c1 [Compound 529] | 100 to 500
10 | C[C@@H]1CN(c2cc(C(=O)Nc3ccc(S(=O)(=O)NCCO)cc3N3CCC4(CC3)CC4)ccc2OCF)CCO1 [Compound 530] | 100 to 500
11 | C[C@H]1CN(c2cc(C(=O)Nc3ccc(S(=O)(=O)NCCO)cc3N3CCC4(CC3)CC4)ccc2OCF)CCO1 [Compound 531] | 100 to 500
12 | O=C(Nc1ccc(S(=O)(=O)NCCO)cc1N1CCC2(CC1)CC2)c1ccc(OCF)c(N2CC(F)(F)C2)c1 [Compound 532] | 100 to 500
13 | O=C(Nc1ccc(S(=O)(=O)NCCO)cc1N1CCC2(CC1)CC2)c1ccc(OCF)c(OCCC(F)(F)F)c1 [Compound 533] | 100 to 500
14 | O=C(Nc1ccc(S(=O)(=O)NCCO)cc1N1CCC2(CC1)CC2)c1ccc(OCF)c(N2CCC3(CC3)C2)c1 [Compound 534] | 100 to 500
15 | O=C(Nc1ccc(S(=O)(=O)NCCO)cc1N1CCC2(CC1)CC2)c1ccc(OCF)c(OC2CCC2)c1 [Compound 535] | 100 to 500
16 | CC1(F)CCN(c2cc(C(=O)Nc3ccc(S(=O)(=O)NCCO)cc3N3CCC4(CC3)CC4)ccc2OCF)C1 (stereo not shown) [Compound 536] | 100 to 500
17 | O=C(Nc1ccc(S(=O)(=O)NCCO)cc1N1CCC2(CC1)CC2)c1ccc(OCF)c(N2CCC(F)CC2)c1 [Compound 537] | 100 to 500
18 | O=C(Nc1ccc(S(=O)(=O)NCCO)cc1N1CCC2(CC1)CC2)c1ccc(OCF)c(N2CC3CC3C2)c1 (stereo not shown) [Compound 538] | 100 to 500
19 | CC(C)(CO)Nc1cc(C(=O)Nc2ccc(S(=O)(=O)NCCO)cc2N2CCC3(CC2)CC3)ccc1OCF [Compound 539] | 100 to 500
20 | O=C(Nc1ccc(S(=O)(=O)NCCO)cc1N1CCC2(CC1)CC2)c1ccc(OCF)c(N2CCOCC2)c1 [Compound 540] | 100 to 500
21 | C[C@@H](CO)NS(=O)(=O)c1ccc(NC(=O)c2ccc(OCF)c(N3CCC(F)(F)CC3)c2)c(N2CCC3(CC2)CC3)c1 [Compound 541] | 100 to 500

Row | SMILES | IC50 [nM]
22 | C[C@H](CO)NS(=O)(=O)c1ccc(NC(=O)c2ccc(OCF)c(N3CCC(F)(F)CC3)c2)c(N2CCC3(CC2)CC3)c1 [Compound 542] | 100 to 500
23 | C[C@@H]1CN(c2cc(C(=O)Nc3ccc(S(=O)(=O)N[C@@H](C)CO)cc3N3CCC4(CC3)CC4)ccc2OCF)CCO1 [Compound 543] | 100 to 500
24 | C[C@H](CO)NS(=O)(=O)c1ccc(NC(=O)c2ccc(OCF)c(N3CCO[C@H](C)C3)c2)c(N2CCC3(CC2)CC3)c1 [Compound 544] | 100 to 500
25 | O=C(Nc1ccc(NS(=O)(=O)CCO)cc1N1CCC2(CC1)CC2)c1ccc(OCF)c(N2CCC(F)(F)CC2)n1 [Compound 545] | ≤ 100
26 | C[C@@H]1CN(c2nc(C(=O)Nc3ccc(NS(=O)(=O)CCO)cc3N3CCC4(CC3)CC4)ccc2OCF)CCO1 [Compound 546] | ≤ 100
27 | C[C@H]1CN(c2nc(C(=O)Nc3ccc(NS(=O)(=O)CCO)cc3N3CCC4(CC3)CC4)ccc2OCF)CCO1 [Compound 547] | ≤ 100
28 | O=C(Nc1ccc(NS(=O)(=O)CCO)cc1N1CCC2(CC1)CC2)c1ccc(OCF)c(N2CC(F)(F)C2)n1 [Compound 548] | ≤ 100
29 | O=C(Nc1ccc(NS(=O)(=O)CCO)cc1N1CCC2(CC1)CC2)c1ccc(OCF)c(OCCC(F)(F)F)n1 [Compound 549] | ≤ 100
30 | O=C(Nc1ccc(NS(=O)(=O)CCO)cc1N1CCC2(CC1)CC2)c1ccc(OCF)c(N2CCC3(CC3)C2)n1 [Compound 550] | ≤ 100
31 | O=C(Nc1ccc(NS(=O)(=O)CCO)cc1N1CCC2(CC1)CC2)c1ccc(OCF)c(OC2CCC2)n1 [Compound 551] | ≤ 100
32 | CC1(F)CCN(c2nc(C(=O)Nc3ccc(NS(=O)(=O)CCO)cc3N3CCC4(CC3)CC4)ccc2OCF)C1 (stereo not shown) [Compound 552] | ≤ 100
33 | O=C(Nc1ccc(NS(=O)(=O)CCO)cc1N1CCC2(CC1)CC2)c1ccc(OCF)c(N2CCC(F)CC2)n1 [Compound 553] | ≤ 100
34 | O=C(Nc1ccc(NS(=O)(=O)CCO)cc1N1CCC2(CC1)CC2)c1ccc(OCF)c(N2CC3CC3C2)n1 (stereo not shown) [Compound 554] | ≤ 100
35 | CC(C)(CO)Nc1nc(C(=O)Nc2ccc(NS(=O)(=O)CCO)cc2N2CCC3(CC2)CC3)ccc1OCF [Compound 555] | ≤ 100
36 | O=C(Nc1ccc(NS(=O)(=O)CCO)cc1N1CCC2(CC1)CC2)c1ccc(OCF)c(N2CCOCC2)n1 [Compound 556] | ≤ 100
37 | C[C@@H](CO)S(=O)(=O)Nc1ccc(NC(=O)c2ccc(OCF)c(N3CCC(F)(F)CC3)n2)c(N2CCC3(CC2)CC3)c1 [Compound 557] | ≤ 100
38 | C[C@H](CO)S(=O)(=O)Nc1ccc(NC(=O)c2ccc(OCF)c(N3CCC(F)(F)CC3)n2)c(N2CCC3(CC2)CC3)c1 [Compound 558] | ≤ 100
39 | C[C@@H]1CN(c2nc(C(=O)Nc3ccc(NS(=O)(=O)[C@@H](C)CO)cc3N3CCC4(CC3)CC4)ccc2OCF)CCO1 [Compound 559] | ≤ 100
40 | C[C@@H]1CN(c2nc(C(=O)Nc3ccc(NS(=O)(=O)[C@H](C)CO)cc3N3CCC4(CC3)CC4)ccc2OCF)CCO1 [Compound 560] | ≤ 100
41 | O=C(Nc1ccc(S(=O)(=O)NCCO)cc1N1CCC2(CC1)CC2)c1ccc(OCF)c(N2CCC(F)(F)CC2)n1 [Compound 561] | 100 to 500
42 | C[C@@H]1CN(c2nc(C(=O)Nc3ccc(S(=O)(=O)NCCO)cc3N3CCC4(CC3)CC4)ccc2OCF)CCO1 [Compound 562] | 100 to 500

Results, then the molecule that gave them:

Row | IC50 [nM] | SMILES
43 | 100 to 500 | C[C@H]1CN(c2nc(C(=O)Nc3ccc(S(=O)(=O)NCCO)cc3N3CCC4(CC3)CC4)ccc2OCF)CCO1 [Compound 563]
44 | 100 to 500 | O=C(Nc1ccc(S(=O)(=O)NCCO)cc1N1CCC2(CC1)CC2)c1ccc(OCF)c(N2CC(F)(F)C2)n1 [Compound 564]
45 | 100 to 500 | O=C(Nc1ccc(S(=O)(=O)NCCO)cc1N1CCC2(CC1)CC2)c1ccc(OCF)c(OCCC(F)(F)F)n1 [Compound 565]
46 | 100 to 500 | O=C(Nc1ccc(S(=O)(=O)NCCO)cc1N1CCC2(CC1)CC2)c1ccc(OCF)c(N2CCC3(CC3)C2)n1 [Compound 566]
47 | 100 to 500 | O=C(Nc1ccc(S(=O)(=O)NCCO)cc1N1CCC2(CC1)CC2)c1ccc(OCF)c(OC2CCC2)n1 [Compound 567]
48 | 100 to 500 | CC1(F)CCN(c2nc(C(=O)Nc3ccc(S(=O)(=O)NCCO)cc3N3CCC4(CC3)CC4)ccc2OCF)C1 (stereo not shown) [Compound 568]
49 | 100 to 500 | O=C(Nc1ccc(S(=O)(=O)NCCO)cc1N1CCC2(CC1)CC2)c1ccc(OCF)c(N2CCC(F)CC2)n1 [Compound 569]
50 | 100 to 500 | O=C(Nc1ccc(S(=O)(=O)NCCO)cc1N1CCC2(CC1)CC2)c1ccc(OCF)c(N2CC3CC3C2)n1 (stereo not shown) [Compound 570]
51 | 100 to 500 | CC(C)(CO)Nc1nc(C(=O)Nc2ccc(S(=O)(=O)NCCO)cc2N2CCC3(CC2)CC3)ccc1OCF [Compound 571]
52 | 100 to 500 | O=C(Nc1ccc(S(=O)(=O)NCCO)cc1N1CCC2(CC1)CC2)c1ccc(OCF)c(N2CCOCC2)n1 [Compound 572]
53 | 100 to 500 | C[C@@H](CO)NS(=O)(=O)c1ccc(NC(=O)c2ccc(OCF)c(N3CCC(F)(F)CC3)n2)c(N2CCC3(CC2)CC3)c1 [Compound 573]
54 | 100 to 500 | C[C@H](CO)NS(=O)(=O)c1ccc(NC(=O)c2ccc(OCF)c(N3CCC(F)(F)CC3)n2)c(N2CCC3(CC2)CC3)c1 [Compound 574]
55 | 100 to 500 | C[C@@H]1CN(c2nc(C(=O)Nc3ccc(S(=O)(=O)N[C@@H](C)CO)cc3N3CCC4(CC3)CC4)ccc2OCF)CCO1 [Compound 575]
56 | 100 to 500 | C[C@H](CO)NS(=O)(=O)c1ccc(NC(=O)c2ccc(OCF)c(N3CCO[C@H](C)C3)n2)c(N2CCC3(CC2)CC3)c1 [Compound 576]
57 | ≤ 100 | CSc1ccc(NC(=O)c2ccc(NS(=O)(=O)CCO)cc2N2CCC3(CC2)CC3)cc1N1CCC(F)(F)CC1 [Compound 577]
58 | ≤ 100 | CSc1ccc(NC(=O)c2ccc(NS(=O)(=O)CCO)cc2N2CCC3(CC2)CC3)cc1N1CCO[C@H](C)C1 [Compound 578]
59 | ≤ 100 | CSc1ccc(NC(=O)c2ccc(NS(=O)(=O)CCO)cc2N2CCC3(CC2)CC3)cc1N1CCO[C@@H](C)C1 [Compound 579]
60 | ≤ 100 | CSc1ccc(NC(=O)c2ccc(NS(=O)(=O)CCO)cc2N2CCC3(CC2)CC3)cc1N1CC(F)(F)C1 [Compound 580]
61 | ≤ 100 | CSc1ccc(NC(=O)c2ccc(NS(=O)(=O)CCO)cc2N2CCC3(CC2)CC3)cc1OCCC(F)(F)F [Compound 581]
62 | ≤ 100 | CSc1ccc(NC(=O)c2ccc(NS(=O)(=O)CCO)cc2N2CCC3(CC2)CC3)cc1N1CCC2(CC2)C1 [Compound 582]
63 | ≤ 100 | CSc1ccc(NC(=O)c2ccc(NS(=O)(=O)CCO)cc2N2CCC3(CC2)CC3)cc1OC1CCC1 [Compound 583]
64 | ≤ 100 | CSc1ccc(NC(=O)c2ccc(NS(=O)(=O)CCO)cc2N2CCC3(CC2)CC3)cc1N1CCC(C)(F)C1 (stereo not shown) [Compound 584]
